Literature values as cited in patent US6509043B1, “Composition comprising soy protein, dietary fibres and a phytoestrogen compound and use thereof in the prevention and/or treatment of pulmonary diseases” (Nutri Pharma ASA, priority 2001, dated 2003).

Tested on: estrogenic effect
Settings: in vitro; reported by Knight (Maturitas 22, 167-175 (1995))

## O=c1c(-c2ccc(O)cc2)coc2cc(O)ccc12 [daidzein]
  relative estrogenic potency as compared to estradiol (relative potency of 100): 0.013
